Test systems include RPMI-8226; NCI-H226; COLO 205; SNB-19; SF-295; SR; A498; LOX IMVI; OVCAR-5; HOP-92; PC-3; HCC 2998; A549; SK-MEL-5; SN12C; MCF7; SNB-75; SNB-78; CCRF-CEM; ACHN.
Holding throughout (experiment): inhibition of tumour cell growth, NCI panel, 48 h

The structures appear in SMILES notation.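 Cultured in 96-well plates, cells were exposed to test compound for 48 hours across five concentrations. GI50 marks 50% less growth.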 The source made the active and inactive calls. Rule as the data show it: active = GI50 up to about 1.1 µM and inactive = higher. Some results are limits rather than exact numbers.

The values that follow come from ChEMBL document CHEMBL1201862, “PubChem BioAssay data set” (2004).

For `O=C1/C(=C/c2ccccc2)CN(C(=O)CCN2CCCC2)C/C1=C\c1ccccc1`, the GI50 was 0.253 µM (active) in the experiment on RPMI-8226; 6 µM (inactive) in the experiment with NCI-H226; 1.53 µM (inactive) in the experiment on COLO 205; 2.51 µM (inactive) in the experiment on SNB-19; 1.09 µM (active) in the experiment on SF-295; 219 nM (active) in the experiment with SR. Moreover, the GI50 in the experiment on A498 is 4.17 µM (inactive); in the experiment on LOX IMVI it was 0.687 µM (active); in the experiment with OVCAR-5, 3.16 µM (inactive); in the experiment on HOP-92, 4.44 µM (inactive); with PC-3, 724 nM (active); in the experiment with HCC 2998, 1.77 µM (inactive). In addition, the GI50 with A549 is 3.91 µM (inactive); in the experiment on SK-MEL-5 it was 1.83 µM (inactive); in the experiment with SN12C, 1.51 µM (inactive); with MCF7, 640 nM (active); in the experiment with SNB-75, 4.98 µM (inactive); in the experiment with SNB-78, 3.8 µM (inactive). In addition, the GI50 is 0.286 µM (active) with CCRF-CEM and 1.98 µM (inactive) in the experiment on ACHN.

For `Nc1ncnc2c1ncn2C1CCC(CO)O1` (centres undefined), the GI50 with RPMI-8226 was > 100 µM (inactive); with NCI-H226 it was > 67.9 µM (inactive); in the experiment on COLO 205, > 100 µM (inactive); in the experiment on SNB-19 it was > 100 µM (inactive); in the experiment with SF-295, > 79.4 µM (inactive); in the experiment with A498 it was > 85.1 µM (inactive). Further, the GI50 with LOX IMVI was > 100 µM (inactive); in the experiment on OVCAR-5, > 100 µM (inactive); with HOP-92, > 79.8 µM (inactive); in the experiment with HCC 2998, > 77.4 µM (inactive); with A549, > 100 µM (inactive); with SK-MEL-5, > 100 µM (inactive). The GI50 was > 100 µM (inactive) in the experiment on SN12C; > 100000 nM (inactive) in the experiment with MCF7; > 100 µM (inactive) with SNB-75; > 100 µM (inactive) in the experiment on SNB-78; > 100 µM (inactive) in the experiment on CCRF-CEM.

In the case of `C=C=CC(NC(=O)c1ccccc1)(C(=O)O)C(F)(F)F` (centres undefined), the GI50 in the experiment on RPMI-8226 is > 100 µM (inactive); in the experiment with NCI-H226, > 100 µM (inactive); in the experiment with COLO 205, > 100 µM (inactive); in the experiment on SNB-19, > 100 µM (inactive); in the experiment on SF-295, > 100 µM (inactive); in the experiment with SR, > 100000 nM (inactive). The GI50 in the experiment on A498, in the experiment with LOX IMVI, with OVCAR-5, in the experiment with HOP-92, with HCC 2998 and in the experiment on A549 was > 100 µM (inactive) each time. The GI50 in the experiment with SK-MEL-5, in the experiment with SN12C, in the experiment with SNB-75, in the experiment on SNB-78, in the experiment with CCRF-CEM and in the experiment with ACHN was > 100 µM (inactive) in each case.

With `COc1cccc2c1C(=O)c1c(O)c3c(c(O)c1C2=O)CC(O)(C(O)CO)CC3OC1CC(N2CCOCC2)C(O)C(C)O1` (centres undefined), the GI50 in the experiment on RPMI-8226 is 0.00378 µM (active); with NCI-H226 it was 0.0118 µM (active); with COLO 205 it was 0.00177 µM (active); with SNB-19, 0.00404 µM (active); in the experiment with SF-295, 0.00206 µM (active); with SR it was 2.14 nM (active). Besides, the GI50 with A498 is 0.00135 µM (active); in the experiment with OVCAR-5 it was 0.00475 µM (active); in the experiment on HOP-92, 0.065 µM (active); in the experiment with PC-3, 12.3 nM (active); in the experiment with HCC 2998 it was < 0.001 µM (active); in the experiment with A549, 0.00108 µM (active). Besides, the GI50 is 0.00223 µM (active) in the experiment on SK-MEL-5; 0.00205 µM (active) with SN12C; 22.3 nM (active) in the experiment with MCF7; 0.00388 µM (active) in the experiment with SNB-75; 0.0106 µM (active) with SNB-78; 0.00849 µM (active) in the experiment on CCRF-CEM. In addition, the GI50 in the experiment with ACHN was 0.00193 µM (active).

Take `COc1ccc2[nH]c3c(C)c4cc[n+](C)cc4c(C)c3c2c1`: the GI50 is 0.232 µM (active) in the experiment on NCI-H226; 0.16 µM (active) in the experiment with SNB-19; 0.173 µM (active) in the experiment with SF-295; 6.21 µM (inactive) in the experiment on LOX IMVI; 6.67 µM (inactive) in the experiment on OVCAR-5; 2.27 µM (inactive) with HOP-92. Also, the GI50 was 4550 nM (inactive) in the experiment on PC-3; 1.92 µM (inactive) in the experiment on HCC 2998; 1.18 µM (inactive) in the experiment with SK-MEL-5; 0.0834 µM (active) with SN12C; 2160 nM (inactive) in the experiment with MCF7; 0.121 µM (active) in the experiment with SNB-75. For the same compound, the GI50 in the experiment on SNB-78 is 0.406 µM (active); in the experiment with CCRF-CEM, 1.14 µM (inactive); with ACHN it was 7.24 µM (inactive).
